According to patent US5871753A, “Regulated transcription of targeted genes and other biological events” (Board of Trustees of the Leland Stanford Junior University, priority 1995, dated 1999):

How the values were obtained:
[1] = tested on: chimeric receptor TAC/TAC/ZETA (TTZ); test: Secreted alkaline phosphatase reporter (NFAT-SX and other IL-2 enhancer elements) activation via cross-linking of chimeric receptor TAC/TAC/ZETA in TAg Jurkat cells; assay type: cell-based, human; conditions: 1 ng/ml FK506; TTZ-transfected TAg Jurkat cells
Excerpt: Induction of isolated IL-2 Enhancer-Binding Transcription Factors by cross-Linking the CD3.zeta. Chain of the T-Cell Receptor
The plasmid pSXNeo/IL2 (IL2-SX) (FIG. 1), placing the placental secreted alkaline phosphatase gene under the control of human IL-2 promoter (-325 to +47; MCB(86) 6, 3042), and variants (i.e. NFAT-SX, NFκB-SX, OAP/Oct1-SX, and AP-1-SX) under the control of the minimal IL-2 promoter (-325 to -294 and -72 to +47) plus synthetic oligomers, containing various promoter elements (i.e. NFAT, NKκKB, OAP/Oct-1, and AP1, respectively), were made by three piece ligations of 1) pPL/SEAP (Berger, et al., Gene (1988) 66,1) cut with SspI and HindIII; 2) pSV2/Neo (Southern and Berg, J. Mol. Appl. Genet. (1982) 1, 332) cut with NdeI, blunted with Klenow, then cut with PvuI; and 3) various promoter-containing plasmids (i.e. NFAT-CD8, κB-CD8, cx12lacZ-Oct-1, AP1-LUCIF3H, or cx15IL2) (described below) cut with PvuI and HindIII. NFAT-CD8 contains 3 copies of the NFAT-binding site (-286 to -257; Genes and Dev. (1990) 4, 1823) and cx12lacZ-Oct contains 4 copies of the OAP/Oct-1/(ARRE-1) binding site (MCB, (1988) 8, 1715) from the human IL-2 enhancer; κB-CD8 contains 3 copies of the NFκB binding site from the murine κ light chain (EMBO (1990) 9, 4425) and AP1-LUCIF3H contains 5 copies of the AP-1 site (5'-[…]-3') from the metallothionen promoter. […]

[2] = tested on: chimeric FKBP12/CD3.zeta. (1FK3) receptor; test: NFAT-inducible secreted alkaline phosphatase reporter activation through chimeric FKBP12/CD3.zeta. (1FK3) receptor; assay type: cell-based, human; conditions: 2 ng/ml FK506; FK1012A-stimulated 1FK3 transfected cells
Method: Activity of the Dimeric FK506 Derivative, FK1012A, on the Chimeric FKBP12/CD3.zeta. (1FK3) Receptor
5 μg of the eukaryotic expression vector, pBJ5, (based on pCDL-SRαwith a polylinker inserted between the 16S splice site and the poly A site) containing the chimeric receptor (1FK3), was co-transfected with 4 μg of the NFAT-inducible secreted alkaline phosphatase reporter plasmid, NFAT-SX. As a control, 5 μg of pBJ5 was used, instead of 1FK3/pBJ5, in a parallel transfection. After 24 hours, aliquots of each transfection containing approximately 10^5 cells were incubated with log dilutions of the drug, FK1012A, as indicated. As a positive control and to control for transfection efficiency, ionomycin (1 μm) and PMA (25 ng/ml) were added to aliquots from each transfection. After an additional 14 hour incubation, the supernatants were assayed for alkaline phosphatase activity and these activities were expressed relative to that of the positive control samples.
To obtain the binding domain for FK506, plasmid rhFKBP (provided by S. Schreiber, Nature (1990) 346, 674) was used with P#6052 (SEQ ID NO. 33) and P#6053 (SEQ ID NO. 35) to obtain a 340 bp XhoI-SalI fragment containing human FKBP12. This fragment was inserted into pBluescript digested with XhoI and SalI to provide plasmid FK12/KS, which was the source for the FKBP12 binding domain. […]

[3] = tested on: myristoylated chimeric CD3.zeta./FKBP12 (MZF3E) receptor; test: NFAT-SX secreted alkaline phosphatase reporter activation through myristoylated chimeric CD3.zeta./FKBP12 (MZF3E) receptor; assay type: cell-based, human; conditions: 1 ng/ml FK506, FK1012B-stimulated
Method: Activity of the Dimeric FK506 Derivative, FK1012B, on the Myristoylated Chimeric CD3.zeta./FKBP12 (MZF3E) Receptor
5 μg of the eukaryotic expression vector, pBJ5, containing a myristoylated chimeric receptor was co-transfected with 4 μg NFAT-SX. MZE, MZF1E, MZF2E and MZF3E contain 0, 1, 2, or 3 copies of FKBP12, respectively, downstream of a myristoylated CD3.zeta. cytoplasmic domain (see FIG. 2). As a control, 5 μg of pBJ5 was used in a parallel transfection. After 24 hours, aliquots of each transfection containing approximately 10^5 cells were incubated with log dilutions of the drug, FK1012B, as indicated. As a positive control and to control for transfection efficiency, ionomycln (1 μm) and PMA (25 ng/ml) were added to aliquots from each transfection. After an additional 12 hour incubation, the supernatants were assayed for alkaline phosphatase activity and these activities were expressed relative to that or the positive control samples. […] Compare FIGS. 7 and 8.
A myristoylation sequence from c-src was obtained from Pellman, et al., Nature 314, 374, and joined to a complementary sequence of CD3.zeta. to provide a primer which was complementary to a sequence 3' of the transmembrane domain, namely P#8908 (SEQ ID NO. 23). This primer has a SacII site adjacent to the 5' terminus and a XhoI sequence adjacent to the 3' terminus of the myristoylation sequence. […]

[4] = tested on: NF-AT-directed transcription; conditions: Emmel et al. 1989; Flanagan et al. 1991; cited from earlier work

With `C=CC[C@@H]1/C=C(\C)C[C@H](C)C[C@H](OC)[C@H]2O[C@@](O)(C(=O)C(=O)N3CCCC[C@H]3C(=O)O[C@H](/C(C)=C/[C@@H]3CC[C@@H](O)[C@H](OC)C3)[C@H](C)[C@@H](O)CC1=O)[C@H](C)C[C@@H]2OC` [FK506] as the compound, how does the “activity due to NFAT after addition of FK506” value [1] read?
The value was “dropped all activity due to NFAT to background levels”.

What about the “stimulations after addition of FK506” value [2] of the same compound?
Its value is “dropped all stimulations to background levels”.

And the “stimulations after addition of FK506” value [3]?
The value was “dropped all stimulations to near background levels”.

What about the “inhibition of NF-AT-directed transcription” value [4] of the same compound?
Its value is “Inhibition of NF-AT-directed transcription”.
